The results in this text go back to US6635621B1, “Cysteine protease inhibitors” (Naeja Pharmaceutical Inc., priority 1999, dated 2003).

As a reminder, the IC50 is the concentration at which inhibition is half-maximal. By melting point is commonly meant the temperature, or range, at which the solid turns liquid.

For one data set, the target named is rat cathepsin B (Rattus norvegicus, UniProt P00787). As to the kind of experiment: In vitro assay for inhibition of cathepsin B. The format is biochemical. As to conditions: r rat cathepsin B, substrate N-CBZ-Phe-Arg-AMC, pH 5.1, 10 min incubation at room temperature. Here is the method:
In Vitro Assay Procedure for Cathepsin B
The compounds of formula I were tested for inhibition of cathepsin B using the known method (A. J. Barret et al., Biochem. J. 1982, 201, 189-198). To a 170 μl of enzyme-buffer mixture (enzyme: r rat cathepsin B, diluted to give approximate 10 F units/min, buffer: 56 mM sodium acetate, 1.124 mM EDTA, 10 mM DTT, pH 5.1) a 10 μL of inhibitor (dissolved in DMSO) was added. After 10 min of incubation at room temperature, a 20 μl of 5 mM substrate (N-CBZ-Phe-Arg-AMC, dissolved in DMSO) was added to initiate reaction. Reading is followed up for 10 min at the fluoroscan reader (excitation at 380 nm emission at 460 nm).
(§1) A plot of percentage of inhibition vs inhibitor concentration is obtained, and IC50 is determined using a linear regression calculations (concentration of inhibitor which will give 50% inhibition).

For another data set, the target named is rat cathepsin L (Rattus norvegicus, UniProt P07154). As to the kind of experiment: In vitro assay for inhibition of cathepsin L. The format is biochemical. As to conditions: r rat cathepsin L, substrate N-CBZ-Phe-Arg-AMC, pH 5.0, 10 min incubation at room temperature. Here is the method:
In Vitro Assay Procedure for Cathepsin L
To a 170 μl of enzyme-buffer mixture (enzyme: r rat cathepsin L, diluted to give approximate 15 F units/min, buffer: 58.8 mM sodium citrate, 1.18 mM EDTA, 235 mM sodium chloride, 5 mM […], pH 5.0) a 10 μL of inhibitor (dissolved in DMSO) was added. After 10 min of incubation at room temperature, a 20 μl of 1 mM substrate (N-CBZ-Phe-Arg-AMC, dissolved in DMSO) was added to initiate reaction. Reading is followed up for 10 min at the fluoroscan reader (excitation at 380 nm emission at 460 nm).
as §1

The next data set concerns the target T1, cathepsin K (Homo sapiens, UniProt P43235).
T1 sequence (P43235 115-329): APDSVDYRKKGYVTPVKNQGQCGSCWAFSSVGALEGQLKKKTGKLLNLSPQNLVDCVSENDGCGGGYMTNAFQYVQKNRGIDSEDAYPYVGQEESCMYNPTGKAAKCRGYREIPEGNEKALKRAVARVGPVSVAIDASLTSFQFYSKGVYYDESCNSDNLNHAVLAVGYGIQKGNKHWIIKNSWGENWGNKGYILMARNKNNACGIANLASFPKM
As to the kind of experiment: In vitro assay for inhibition of cathepsin K. The format is biochemical. To be noted: r cathepsin K, substrate N-CBZ-Phe-Arg-AMC, pH 5.5, 10 min incubation at room temperature. Here is the method:
In Vitro Assay Procedure for Cathepsin K
To a 170 μl of enzyme-buffer mixture (enzyme: r cathepsin K, diluted to give approximate 30 F units/min, buffer: 100 mM sodium acetate, 5 mM EDTA, 20 mM L-cysteine, 0.01% Brij, pH 5.5) a 10 μL of inhibitor (dissolved in DMSO) was added. After 10 min of incubation at room temperature, a 20 μl of 2.7 mM substrate (N-CBZ-Phe-Arg-AMC, dissolved in DMSO) was added to initiate reaction. Reading is followed up for 10 min at the fluoroscan II plate reader (excitation at 380 nm emission at 460 nm).
as §1

In the next data set the target is cathepsin S (Homo sapiens, UniProt P25774). As to the kind of experiment: In vitro assay for inhibition of cathepsin S. The format is biochemical. As to conditions: r cathepsin S, substrate N-CBZ-Val-Val-Arg-AMC, pH 6.5, 10 min incubation at room temperature. Here is the method: In Vitro Assay Procedure for Cathepsin S
Sequence of cathepsin S (P25774 115-331, species assumed): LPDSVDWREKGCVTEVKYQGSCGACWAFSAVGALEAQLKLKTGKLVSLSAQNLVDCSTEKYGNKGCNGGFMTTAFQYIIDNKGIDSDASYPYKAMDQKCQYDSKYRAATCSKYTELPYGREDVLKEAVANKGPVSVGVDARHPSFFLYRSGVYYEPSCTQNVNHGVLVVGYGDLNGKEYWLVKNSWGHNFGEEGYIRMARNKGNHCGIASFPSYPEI
To a 170 μl of enzyme-buffer mixture (enzyme: r cathepsin S, diluted to give approximate 30 F units/min, buffer: 100 mM sodium phosphate, 1 mM EDTA, 5 mM DTT, 0.01% Brij, pH 6.5) a 10 μL of inhibitor (dissolved in DMSO) was added. After 10 min of incubation at room temperature, a 20 μl of 1.2 mM substrate (N-CBZ-Val-Val-Arg-AMC, dissolved in DMSO) was added to initiate reaction. Reading is followed up for 10 min at the fluoroscan II plate reader (excitation at 380 nm emission at 460 nm).
as §1

Sequence of rat cathepsin L (P07154 114-334): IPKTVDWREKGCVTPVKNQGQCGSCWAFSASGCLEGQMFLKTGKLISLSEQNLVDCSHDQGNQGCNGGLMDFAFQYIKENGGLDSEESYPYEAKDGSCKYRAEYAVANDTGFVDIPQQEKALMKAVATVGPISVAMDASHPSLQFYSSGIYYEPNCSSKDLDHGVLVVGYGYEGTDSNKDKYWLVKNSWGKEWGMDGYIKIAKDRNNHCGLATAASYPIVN
Sequence of rat cathepsin B (P00787 80-333): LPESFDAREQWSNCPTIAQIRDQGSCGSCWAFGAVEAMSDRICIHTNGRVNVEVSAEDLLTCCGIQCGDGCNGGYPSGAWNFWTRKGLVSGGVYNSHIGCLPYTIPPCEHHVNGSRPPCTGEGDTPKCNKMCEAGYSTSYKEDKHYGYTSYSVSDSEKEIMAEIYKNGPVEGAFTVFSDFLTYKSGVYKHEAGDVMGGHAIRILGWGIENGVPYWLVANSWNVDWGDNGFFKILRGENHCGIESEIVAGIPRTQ

For `CC(=O)N/C=C(/NC(=O)[C@H](CC1CCCCC1)NC(=O)OCc1ccccc1)C(N)=O` [Example 19a, (2E)-(2S-2-Benzyloxycarbonylamino-2-cyclohexymethyl-acetamido)-3-acetamido-acrylamide], the melting point fell in the range of 140 to 142 °C. The half-maximal inhibitory concentration (IC50) against rat cathepsin B was above 58 µM. The molecule also registered an IC50 on rat cathepsin L above 58 µM. On cathepsin K, this molecule gave a 50% inhibitory concentration (IC50) above 58 µM. At cathepsin S, this molecule came in with an IC50 of 1.86 µM.

Consider `NC(=O)C(NC(=O)[C@H](Cc1ccccc1)NC(=O)CCc1ccccc1)C(O)O` (stereo partly drawn) [Example 14, 2-[2S-2-(3-Phenylpropionoylamino)-2-benzyl-acetamido]-3,3-dihydroxy-propionamide], for which the melting point was in the range of 105 to 110 °C. At rat cathepsin B, this molecule yielded a half-inhibitory concentration (IC50) of 0.98 µM. On rat cathepsin L, this molecule had an IC50 of 0.004 µM. Moreover, at cathepsin K, the IC50 came out at 1.13 µM. Moreover, at cathepsin S, inhibition was half-maximal at 0.004 µM (IC50).

`CC(C)C[C@H](NC(=O)OCc1ccccc1)C(=O)N/C(=C/O)C(N)=O` [Example 15, 2-(2S-2-Benzyloxycarbonylamino-2-isopropylmethyl-acetamido)-3-hydroxy-acrylamide] showed a melting point of 105 to 115 °C. This molecule yielded an IC50 on rat cathepsin B of 9.5 µM. For the same molecule, the IC50 on rat cathepsin L is 0.17 µM. Besides, the concentration for half-maximal inhibition (IC50) against cathepsin K came to 0.018 µM. The IC50 at cathepsin S stood at 0.075 µM.

Molecule `CC(C)C[C@H](NC(=O)OCc1ccccc1)C(=O)NC(=CNCCO)C(N)=O` [Example 7, 2-(2S-2-Benzyloxycarbonylamnino-2-isopropylmnethyl-acetamido)-3-(2-hydroxyethylamnino)-acrylamide] had a melting point of 89 to 92 °C. The molecule also returned an IC50 on rat cathepsin B of 1.96 µM. The same molecule displayed a half-maximal inhibitory concentration (IC50) on rat cathepsin L of 0.23 µM. Further, the half-maximal inhibitory concentration (IC50) against cathepsin K was found to be 0.012 µM. This molecule also yielded a half-inhibitory concentration (IC50) against cathepsin S of 0.18 µM.

In turn, `NC=C(NC(=O)[C@H](Cc1ccccc1)NC(=O)CCc1ccccc1)C(N)=O` [Example 4, 2-[2S-2-(3-Phenylpropionoyl)amino-2-benzyl-acetamido]-3-amino-acrylamide] had a melting point of 75 to 80 °C. Besides, 2.63 µM corresponded to half-maximal inhibition against rat cathepsin B (IC50). At rat cathepsin L, half-maximal inhibition (IC50) required 0.015 µM. Moreover, at cathepsin K, 1.2 µM corresponded to half-maximal inhibition (IC50). For the same molecule, half-maximal inhibition against cathepsin S (IC50) required 0.0087 µM.

In the case of `CC(C)C[C@H](NC(=O)OCc1ccccc1)C(=O)NC(=CN)C(N)=O` [Example 1, 2-(2S-2-Benzyloxycarbonylamino-2-isopropylmethyl-acetamido)-3-amino-acrylamide], the melting point is 80 to 90 °C. Besides, on rat cathepsin B, the IC50 is 4.35 µM. The molecule further had a concentration for half-maximal inhibition (IC50) on rat cathepsin L of 0.094 µM. The molecule further yielded an IC50 against cathepsin K of 0.011 µM. Besides, inhibition against cathepsin S was half-maximal at 0.069 µM (IC50).

Regarding `CC(=O)N/C=C(/NC(=O)[C@H](CC(C)C)NC(=O)OCc1ccccc1)C(N)=O` [Example 10a, (2E)-(2S-2-Benzyloxycarbonylamino-2-isopropylmethyl-acetamido)-3-acetamido-acrylamide], the melting point lay within 73 to 76 °C. At rat cathepsin B, this molecule gave an IC50 of 45.2 µM. The 50% inhibitory concentration (IC50) against rat cathepsin L was found to be 8.62 µM. For the same molecule, the half-inhibitory concentration (IC50) against cathepsin K was 1.42 µM. In addition, the IC50 on cathepsin S is 0.013 µM.

`CC(C)C[C@H](NC(=O)OCc1ccccc1)C(=O)NC(=CNc1ccccc1)C(N)=O` [Example 8, 2-(2S-2-Benzyloxycarbonylamino-2-isoproplmethyl-acetamido)-3-phenylamino-acrylamide]: the melting point lay in the range of 199 to 200 °C. The IC50 against rat cathepsin B worked out at 37.1 µM. Besides, the IC50 at rat cathepsin L was determined as 2.36 µM. Also, the half-inhibitory concentration (IC50) at cathepsin K is 0.33 µM. Further, it took 6.9 µM to reach half-maximal inhibition against cathepsin S (IC50).

The molecule `CC(C)C[C@H](NC(=O)OCc1ccccc1)C(=O)N/C(=C\N1CCN(C)CC1)C(N)=O` [Example 17, 2-(2S-2-Benzyloxycarbonylamino-2-isopropylmethyl-acetamido)-3-(4-methylpiperazino)-acrylamide] returned a melting point of 93.5 to 95 °C. The molecule also registered an IC50 on rat cathepsin B of 1.9 µM. Besides, the midpoint of inhibition against rat cathepsin L, the IC50, lay at 0.23 µM. The concentration for half-maximal inhibition (IC50) against cathepsin K was 0.019 µM. At cathepsin S, this molecule registered an IC50 of 0.18 µM.

As for `NC=C(NC(=O)[C@H](CC1CCCCC1)NC(=O)OCc1ccccc1)C(N)=O` [Example 2, 2-(2S-2-Benzyloxycarbonylamino-2-cyclohexylmethyl-acetamido)-3-amino-acrylamide], the melting point fell in the range of 80 to 85 °C. The IC50 against rat cathepsin B amounted to 1.17 µM. Moreover, at rat cathepsin L, the concentration for half-maximal inhibition (IC50) was determined as 0.072 µM. On cathepsin K, this molecule registered an IC50 of 1.78 µM. In addition, the IC50 on cathepsin S came out at 0.026 µM.

With `CC(C)C[C@H](NC(=O)OCc1ccccc1)C(=O)NC(C(N)=O)C(O)O` (stereo partly drawn) [Example 11, 2-(2S-2-Benzyloxycarbonylamino-2-isopropylmethyl-acetamido)-3,3-dihydroxy-propionamide], the melting point was 86 to 90 °C. Moreover, the IC50 against rat cathepsin B came to 2.4 µM. In addition, on rat cathepsin L, 0.11 µM corresponded to half-maximal inhibition (IC50). Moreover, 0.014 µM corresponded to half-maximal inhibition against cathepsin K (IC50). On cathepsin S, this molecule showed an IC50 of 0.015 µM.

As for `NC=C(NC(=O)[C@H](Cc1ccccc1)NC(=O)OCc1ccccc1)C(N)=O` [Example 3, 2-(2S-2-Benzyloxycarbonylamino-2-benzyl-acetamido)-3-amino-acrylamide], the melting point fell in the range of 127 to 135 °C. In addition, on rat cathepsin B, half-maximal inhibition (IC50) required 1.42 µM. On rat cathepsin L, this molecule had an IC50 of 0.0055 µM. The same molecule displayed an IC50 at cathepsin K of 0.23 µM. At cathepsin S, this molecule displayed a half-inhibitory concentration (IC50) of 0.26 µM.

Molecule `CC(C)C[C@H](NC(=O)OCc1ccccc1)C(=O)NC(=CNCc1ccccc1)C(N)=O` [Example 5, 2-(2S-2-Benzyloxycarbonylamino-2-isopropylmethyl-acetamido)-3-benzylamino-acrylamide] showed a melting point of 115 to 120 °C. In addition, 2.28 µM corresponded to half-maximal inhibition at rat cathepsin B (IC50). This molecule returned an IC50 against rat cathepsin L of 0.064 µM. In addition, the IC50 on cathepsin K was determined as 0.0031 µM. Also, 0.061 µM corresponded to half-maximal inhibition against cathepsin S (IC50).

The molecule `CC(C)C[C@H](NC(=O)OCc1ccccc1)C(=O)N/C(=C\N1CCCCC1)C(N)=O` [Example 9, 2-(2S-2-Benzyloxycarbonylamino-2-isopropylmethyl-acetamido)-3-piperidino-acrylamide] gave a melting point of 99 to 103 °C. On rat cathepsin B, this molecule came in with an IC50 of 0.89 µM. Moreover, the IC50 against rat cathepsin L is 0.062 µM. On cathepsin K, this molecule returned an IC50 of 0.014 µM. In addition, the IC50 on cathepsin S amounted to 0.05 µM.

As for `CC(C)C[C@H](NC(=O)OCc1ccccc1)C(=O)N/C(=C\N1CCC(NC(=O)OC(C)(C)C)C1)C(N)=O` (stereo partly drawn) [Example 18, 2-(2S-2-Benzyloxycarbonylamino-2-isopropylmethyl-acetamido)-3-(3-tert-butoxycarbonylamino-pyrrolidino)-acrylamide], the melting point lay in the range of 140 to 142 °C. The molecule also came in with an IC50 at rat cathepsin B of 1.9 µM. Besides, the concentration for half-maximal inhibition (IC50) on rat cathepsin L came to 0.12 µM. Half-maximal inhibition against cathepsin K (IC50) was put at 0.0096 µM. The molecule also yielded an IC50 against cathepsin S of 0.039 µM.

`CC(C)C[C@H](NC(=O)OCc1ccccc1)C(=O)NC(=CN1CCOCC1)C(N)=O` [Example 6, 2-(2S-2-Benzyloxycarbonylamino-2-isopropylmethyl-acetamido)-3-(morpholin-4-yl)-acrylamide] had a melting point of 120 to 130 °C. In addition, at rat cathepsin B, 0.37 µM corresponded to half-maximal inhibition (IC50). At rat cathepsin L, this molecule showed a half-inhibitory concentration (IC50) of 0.075 µM. In addition, the IC50 against cathepsin K was 0.003 µM. At cathepsin S, this molecule gave an IC50 of 0.05 µM.

Turning to `COC(=O)CN/C=C(/NC(=O)[C@H](Cc1ccccc1)NC(=O)OCc1ccccc1)C(N)=O` [Example 31a, (2E)-(2S-2-Benzyloxycarbonylamino-2-phenylmethyl-acetamido)-3-(1-carbomethoxy-methylamino)-acrylamide], the half-maximal inhibitory concentration (IC50) turned out to be 0.66 µM against rat cathepsin B, 0.017 µM against rat cathepsin L, 0.13 µM at cathepsin K and 0.7 µM against cathepsin S.
